The test system of data set [1] is HeLa cells. Description: In vitro Screening in HeLa Cells - luciferase (RLU). It counts as cell-based, human. Further details: key to Protein (Luc; HeLa): the protein production of HeLa is judged by “+,” “+/−” and “−”; the protein production of HeLa is judged by “+,” “+/−” and “−”; the protein production of HeLa is judged by “+,” “+/−” and “−”. The procedure:
The 2′Fluoro-modified mRNA were then transfected into HeLa cells to assess protein production in a cell context and the same mRNA were also assessed in a cell-free rabbit reticulocyte system. A control of unmodified luciferase (natural luciferase) was used for both transcription experiments, a control of untreated and mock transfected (Lipofectamine 2000 alone) were also analyzed for the HeLa transfection and a control of no RNA was analyzed for the rabbit reticulysates.
For the HeLa transfection experiments, the day before transfection, 20,000 HeLa cells (ATCC no. CCL-2; Manassas, Va.) were harvested by treatment with Trypsin-EDTA solution (LifeTechnologies, Grand Island, N.Y.) and seeded in a total volume of 100 ul EMEM medium (supplemented with 10% FCS and 1× Glutamax) per well in a 96-well cell culture plate (Corning, Manassas, Va.). The cells were grown at […] in 5% CO2 atmosphere overnight. […] Lipofectamine 2000 (LifeTechnologies, Grand Island, N.Y.) was used as transfection reagent and 0.2 ul were diluted in 10 ul final volume of OPTI-MEM. After […] of incubation at room temperature, both solutions were combined and incubated an additional 15 minute at room temperature. Then the 20 ul combined solution was added to the 100 ul cell culture medium containing the HeLa cells and incubated at room temperature. After 18 to 22 hours of incubation cells expressing luciferase were lysed with 100 ul of Passive Lysis Buffer (Promega, Madison, Wis.) according to manufacturer instructions. Aliquots of the lysates were transferred to white opaque polystyrene 96-well plates (Corning, Manassas, Va.) and combined with 100 ul complete luciferase assay solution (Promega, Madison, Wis.). The lysate volumes were adjusted or diluted until no more than 2 mio relative light units (RLU) per well were detected for the strongest signal producing samples and the RLUs for each chemistry tested are shown in Table 42. The plate reader was a BioTek Synergy H1 (BioTek, Winooski, Vt.). The background signal of the plates without reagent was about 200 relative light units per well.
To evaluate using of 2′fluoro-modified mRNA in combination with other modification a series of mRNA were transcribed using either wild-type T7 polymerase (non-fluoro-containing compounds) or using mutant T7 polymerases (fluyoro-containing compounds) as described in Example 86. All modified mRNA were tested by in vitro transfection in HeLa cells.
After 18 to 22 hours of incubation cells expressing luciferase were lysed with 100 ul of Passive Lysis Buffer (Promega, Madison, Wis.) according to manufacturer instructions. Aliquots of the lysates were transferred to white opaque polystyrene 96-well plates (Corning, Manassas, Va.) and combined with 100 ul complete luciferase assay solution (Promega, Madison, Wis.). The lysate volumes were adjusted or diluted until no more than 2 mio relative light units (RLU) per well were detected for the strongest signal producing samples and the RLUs for each chemistry tested are shown in Table 44. The plate reader was a BioTek Synergy H1 (BioTek, Winooski, Vt.). The background signal of the plates without reagent was about 200 relative light units per well.

The target in data set [2] is wild-type T7 polymerase (Escherichia phage T7, UniProt P00573). Description: In Vitro Transcription with Wild-Type T7 Polymerase (transcription and capping yield). The following applies: Pass/Fail; for IVT (G-CSF), first result / IVT (Luc), first result: Table 48 non-naturally occurring; for IVT (G-CSF), first result / IVT (G-CSF): G-CSF mRNA in vitro transcription; for IVT (Luc), first result / IVT (Luc): luciferase mRNA in vitro transcription; for IVT (G-CSF) / IVT (Luc): Table 47 naturally occurring. The procedure: The luciferase and G-CSF modified mRNA were also subjected to an enzymatic capping reaction and each modified mRNA capping reaction was evaluated for yield by spectrophometic measurement (OD260) and correct size assessed using bioanalyzer.

For data set [3], the system named is peripheral blood mononuclear cells (PBMC). Kind of data set: In Vitro Screening in PBMC - G-CSF protein expression. It counts as cell-based, human. The following applies: background about 110 pg/ml. From the text: (§1) The supernatant was harvested and stored frozen until analyzed by ELISA to determine the G-CSF protein expression, and the induction of the cytokines interferon-alpha (IFN-α) and tumor necrosis factor alpha (TNF-α).

Data set [4] concerns peripheral blood mononuclear cells (PBMC), interferon-alpha (IFN-α). Format: cell-based, human. The note with it: IFN-alpha, background about 70 pg/ml.
Source text: as §1

In data set [5] the test system is HeLa cells. Description: G-CSF expression in HeLa cells (ELISA). Format: cell-based, human. Further details: key to Protein (G-CSF; HeLa): the protein production of HeLa is judged by “+,” “+/−” and “−”; the protein production of HeLa is judged by “+,” “+/−” and “−”; the protein production of HeLa is judged by “+,” “+/−” and “−”. The procedure:
To assess the activity of all our different chemical modifications in the context of a second open reading frame, we replicated experiments previously conducted using luciferase mRNA, with human G-CSF mRNA. […] The mutant T7 polymerase was obtained commercially (Durascribe® T7 Transcription kit (Cat. No. DS010925) (Epicentre®, Madison, Wis.).
The modified RNA in Tables 45 and 46 were transfected in vitro in HeLa cells or added to rabbit reticulysates (250 ng of modified mRNA) as indicated. […] In Table 45, “NT” means not tested.
(In general: ELISA stands for enzyme-linked immunosorbent assay.)

Data set [6] can be described thus: Stability of Modified RNA - storage, gel electrophoresis. It counts as physicochemical. The procedure:
Stability experiments were conducted to obtain a better understanding of storage conditions to retain the integrity of modified RNA. […] After the mRNA had been stored for 0 hours, 2 hours, 6 hours, 24 hours, 48 hours, 5 days and 14 days, the mRNA was analyzed by gel electrophoresis using a Bio-Rad EXPERION™ system. The modified, unmodified and lipoplexed G-CSF mRNA was also stored in RNASTABLE® (Biomatrica, Inc. San Diego, Calif.) at 40° C. or water at −80° C. or 40° C. for 35 days before being analyzed by gel electrophoresis.

Setting [7] is: Table 48 non-naturally occurring, ** mutant T7 polymerase.
[8] abbreviates: Table 48 non-naturally occurring.
Where [9] appears, read: Table 47 naturally occurring, *** = production seen in cell free translations.

Where two headings read alike, the source gives them in different places.

wild-type T7 polymerase, sequence (P00573 whole entry): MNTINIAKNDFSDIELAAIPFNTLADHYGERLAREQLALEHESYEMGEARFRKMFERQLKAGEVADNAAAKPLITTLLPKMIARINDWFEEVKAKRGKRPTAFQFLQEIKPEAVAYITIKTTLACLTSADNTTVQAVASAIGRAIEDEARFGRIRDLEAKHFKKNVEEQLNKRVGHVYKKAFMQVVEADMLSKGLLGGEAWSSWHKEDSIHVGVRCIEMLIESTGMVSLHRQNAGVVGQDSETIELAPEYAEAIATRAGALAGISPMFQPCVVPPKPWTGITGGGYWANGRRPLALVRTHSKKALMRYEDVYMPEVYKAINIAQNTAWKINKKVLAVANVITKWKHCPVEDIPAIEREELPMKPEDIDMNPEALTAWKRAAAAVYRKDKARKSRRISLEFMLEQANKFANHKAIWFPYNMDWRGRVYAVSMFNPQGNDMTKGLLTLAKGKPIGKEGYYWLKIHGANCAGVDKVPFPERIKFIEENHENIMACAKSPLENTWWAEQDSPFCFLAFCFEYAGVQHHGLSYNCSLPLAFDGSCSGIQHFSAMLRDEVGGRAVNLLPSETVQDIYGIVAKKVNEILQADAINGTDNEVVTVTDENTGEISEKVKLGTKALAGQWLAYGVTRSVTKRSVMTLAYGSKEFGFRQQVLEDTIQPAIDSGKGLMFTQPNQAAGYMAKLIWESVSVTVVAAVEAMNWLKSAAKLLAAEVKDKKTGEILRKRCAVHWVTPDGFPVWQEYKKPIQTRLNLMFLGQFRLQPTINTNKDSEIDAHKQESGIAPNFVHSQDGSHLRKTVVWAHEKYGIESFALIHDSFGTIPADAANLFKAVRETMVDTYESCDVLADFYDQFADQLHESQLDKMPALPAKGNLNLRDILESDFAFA

With `COC(=O)C=Cc1cn([C@@H]2O[C@H](CO)[C@@H](O)[C@H]2O)c(=O)[nH]c1=O` [5-(2-carbomethoxyvinyl) Uridine], in data set [1] (setting [7]), the “Protein (Luc; HeLa)” value was “−”. In data set [2], the “IVT (G-CSF), first result” value is on record as “Pass” and the “IVT (Luc), first result” value was “Pass”. Besides, the “Protein (G-CSF; PBMC)” value in data set [3] (setting [8]) was “+/− (“+/−” means 150-300 pg/ml G-CSF)”. For the same molecule, the “Cytokines (G-CSF; PBMC)” value in data set [4] (setting [8]) is reported as “− (“−” means less than 100 pg/ml)”. In addition, the “Protein (G-CSF; HeLa)” value in data set [5] (setting [8]) was “−”.

For the molecule `Nc1nc(=O)n([C@@H]2O[C@H](CO)[C@@H](O)[C@H]2O)cc1C=O` [5-formylcytidine (f^5C)], the “Protein (Luc; HeLa)” value in data set [1] (setting [9]) is reported as “−***”. In data set [2], the “IVT (G-CSF)” value is given as “Pass” and the “IVT (Luc)” value is “Pass”. In data set [4] (Table 47 naturally occurring), the “Cytokines (G-CSF; PBMC)” value was “+ (“+” means greater than 100 pg/ml IFN-alpha)”. For the same molecule, the “Protein (G-CSF; HeLa)” value in data set [5] (setting [9]) is “−***”.

For the molecule N^6-methyladenosine (m^6A), the “Protein (Luc; HeLa)” value in data set [1] (setting [9]) was “−”. Also, in data set [2], the “IVT (G-CSF)” value is on record as “Pass” and the “IVT (Luc)” value is recorded as “Pass”. Moreover, in data set [3] (Table 47 naturally occurring), the “Protein (G-CSF; PBMC)” value is “+/− (“+/−” means 150-300 pg/ml G-CSF)”. Further, the “Cytokines (G-CSF; PBMC)” value in data set [4] (Table 47 naturally occurring) was “++++ (“++++” means greater than 1,000 pg/ml interferon-alpha (IFN-alpha))”. Moreover, the “Protein (G-CSF; HeLa)” value in data set [5] (setting [9]) was “−”.

On to 5-Br-Uridine [Compound 5-Br-Uridine], for which, in data set [1] (setting [7]), the “Protein (Luc; HeLa)” value is on record as “+”. In addition, in data set [2], the “IVT (G-CSF), first result” value was “Pass” and the “IVT (Luc), first result” value is “Pass”. Further, the “Protein (G-CSF; PBMC)” value in data set [3] (setting [8]) was “+ (“+” means greater than 300 pg/ml G-CSF)”. Besides, in data set [4] (setting [8]), the “Cytokines (G-CSF; PBMC)” value is “+ (“+” means greater than 100 pg/ml IFN-alpha)”. In addition, the “Protein (G-CSF; HeLa)” value in data set [5] (setting [8]) is listed as “+”.

For the molecule `O=c1[nH]cc([C@@H]2O[C@H](CO)[C@@H](O)[C@H]2O)c(=O)[nH]1` [pseudouridine (Y)], the “Protein (Luc; HeLa)” value in data set [1] (setting [9]) is “+”. In addition, in data set [2], the “IVT (G-CSF)” value is given as “Pass” and the “IVT (Luc)” value is recorded as “Pass”. Besides, in data set [3] (Table 47 naturally occurring), the “Protein (G-CSF; PBMC)” value is on record as “++ (“++” means greater than 1,500 pg/ml G-CSF)”. Moreover, in data set [4] (Table 47 naturally occurring), the “Cytokines (G-CSF; PBMC)” value was “+ (“+” means greater than 100 pg/ml IFN-alpha)”. Further, the “Protein (G-CSF; HeLa)” value in data set [5] (setting [9]) was “+”.

Turning to `O=c1ccn([C@@H]2O[C@H](CO)[C@@H](O)[C@H]2O)c(=S)[nH]1` [2-thiouridine (s^2U)], in data set [1] (setting [9]), the “Protein (Luc; HeLa)” value is “−”. In addition, in data set [2], the “IVT (G-CSF)” value was “Pass” and the “IVT (Luc)” value is reported as “Pass”. For the same molecule, the “Protein (G-CSF; PBMC)” value in data set [3] (Table 47 naturally occurring) was “+ (“+” means greater than 300 pg/ml G-CSF)”. For the same molecule, the “Cytokines (G-CSF; PBMC)” value in data set [4] (Table 47 naturally occurring) is “+ (“+” means greater than 100 pg/ml IFN-alpha)”. In data set [5] (setting [9]), the “Protein (G-CSF; HeLa)” value is “+”.

Regarding `Cn1cc([C@@H]2O[C@H](CO)[C@@H](O)[C@H]2O)c(=O)[nH]c1=O` [1-methylpseudouridine (m^1Y)], in data set [1] (setting [9]), the “Protein (Luc; HeLa)” value is given as “+”. In data set [2], the “IVT (G-CSF)” value is “Pass” and the “IVT (Luc)” value is recorded as “Pass”. Besides, the “Protein (G-CSF; PBMC)” value in data set [3] (Table 47 naturally occurring) is “++++ (“++++” means greater than 6,000 pg/ml G-CSF)”. Also, in data set [4] (Table 47 naturally occurring), the “Cytokines (G-CSF; PBMC)” value was “− (“−” means less than 100 pg/ml)”.

B1: Modified G-CSF mRNA: G-CSF mRNA fully modified with 5-methylcytosine and pseudouridine, with or without lipoplex (0.75% RNAIMAX) (nucleic acid, listed as Homo Sapiens)
chain: GGGAAAUAAGAGAGAAAAGAAGAGUAAGAAGAAAUAUAAGAGCCACCAUGGCCGGUCCCGCGACCCAAAGCCCCAUGAAACUUAUGGCCCUGCAGUUGCUGCUUUGGCACUCGGCCCUCUGGACAGUCCAAGAAGCGACUCCUCUCGGACCUGCCUCAUCGUUGCCGCAGUCAUUCCUUUUGAAGUGUCUGGAGCAGGUGCGAAAGAUUCAGGGCGAUGGAGCCGCACUCCAAGAGAAGCUCUGCGCGACAUACAAACUUUGCCAUCCCGAGGAGCUCGUACUGCUCGGGCACAGCUUGGGGAUUCCCUGGGCUCCUCUCUCGUCCUGUCCGUCGCAGGCUUUGCAGUUGGCAGGGUGCCUUUCCCAGCUCCACUCCGGUUUGUUCUUGUAUCAGGGACUGCUGCAAGCCCUUGAGGGAAUCUCGCCAGAAUUGGGCCCGACGCUGGACACGUUGCAGCUCGACGUGGCGGAUUUCGCAACAACCAUCUGGCAGCAGAUGGAGGAACUGGGGAUGGCACCCGCGCUGCAGCCCACGCAGGGGGCAAUGCCGGCCUUUGCGUCCGCGUUUCAGCGCAGGGCGGGUGGAGUCCUCGUAGCGAGCCACCUUCAAUCAUUUUUGGAAGUCUCGUACCGGGUGCUGAGACAUCUUGCGCAGCCGUGAAGCGCUGCCUUCUGCGGGGCUUGCCUUCUGGCCAUGCCCUUCUUCUCUCCCUUGCACCUGUACCUCUUGGUCUUUGAAUAAAGCCUGAGUAGGAAG
modifications: 5mC/pseudoU; Cap1; polyA tail
In turn, B1 returned a freeze/thaw cycles tolerated in data set [6] of 12 freeze/thaw cycles. Further, the “stable out to” value in data set [6] (stored at 25° C.) came out at 120 h; in data set [6] (stored at 37° C.), 24 h; in data set [6] (stored at 50° C.), 6 h.

Values taken from patent US20130123481A1, “MODIFIED NUCLEOSIDES, NUCLEOTIDES, AND NUCLEIC ACIDS, AND USES THEREOF” (MODERNA THERAPEUTICS, priority 2011, published 2013).
